Experimental data reported in patent US9855256B2, “Cyclooxygenase inhibitor and calcium channel antagonist compositions and methods for use in urological procedures” (Omeros Corporation, priority 2005, dated 2018).

Experiments:
[1] = tested on: urinary bladder; test: In vivo rat cystometry model, 0.2% acetic acid infusion, intravenous drug; settings: 10 mg/kg i.v.
Procedure: The rats were anesthetized with urethane at 1.2 g/kg i.p. in 5 ml/kg. A polyethylene catheter (PE50) was implanted into the bladder for saline or acetic acid infusion through a 3-way stopcock. A pressure transducer was connected for measurements of intravesical pressure. Warm (37° C.) saline was infused into the bladder at a constant rate of […] (1 ml/hour) until cystometry became stable (no less than 60 minutes). Thereafter, 0.2% acetic acid was infused into the urinary bladder. Aspirin (10 mg/kg i.v.) and vehicle were administered intravenously via a PE-10 catheter in the femoral vein at 5 minutes after infusion of acetic acid was started and at the end of first micturition cycle. Dunnett's test was applied for comparison between the time before and after test substance or vehicle treatment. To ascertain differences between the test substance and the vehicle control group, an unpaired Student's t test was used. Differences are considered significant at […].

[2] = tested on: Isolated bladder smooth muscle strips; test: Bladder strip contractility (bradykinin-induced contraction), Examples I and II; assay type: cell-based, rat
[3] = tested on: PGE2; settings: 10 μM perfusion 60 min then saline 30 min; bladders harvested at 90 min
[4] = tested on: overactive bladder function; test: Acetic-acid overactive bladder model, intravesical local delivery, cystometry, Example V; settings: 0.2% acetic acid
Procedure: In this model, acute inflammation of the bladder is produced by using 0.2% acetic acid in saline as the bladder perfusion fluid and cystometry under anesthesia is performed after a recovery period from the surgical procedure.
The animals were anesthesized and bladder catheters were surgically implanted to allow irrigation of the test agents. The following cystometry parameters were monitored: intercontraction interval (ICI), trigger pressure (TP), micturition pressure (MP) and micturition volume (MV) using a Med Associates Cystometry Station and software program. […] Following the saline period, the rat bladder was infused with test agent in saline containing 0.2% acetic acid for 20 min followed by the collection of 7 representative ICI intervals for analysis.
Five to seven animals were normally tested in each group. Acidified saline served as the control. All infusion solutions were prepared fresh on the day of the experiment before use.

CC(=O)Oc1ccccc1C(=O)O [aspirin]
bladder capacity [1]: parallel changes | effect on acetic acid induced reduction in the intercontraction interval (ICI) [1]: gradual time-dependent inhibition | micturition pressure [1]: not affected | threshold pressure [1]: not affected

CC(C(=O)O)c1cccc(C(=O)c2ccccc2)c1 (stereo not drawn) [Ketoprofen, 3-benzoyl-α-methylbenzeneacetic acid]
effect on maximal tension ([2]; ketoprofen 0.25-10 μM): no apparent effect | bladder tissue PGE2 levels [3]: 83±22 pg/mg protein

COC(=O)C1=C(C)NC(C)=C(C(=O)OC)C1c1ccccc1[N+](=O)[O-] [Nifedipine, 1,4-dihydro-2,6-dimethyl-4-(2-nitrophenyl)-3,5-pyridinedicarboxylic acid dimethyl ester]
type of antagonism upon bradykinin-induced contractile responses ([2]; single agents, 10 min incubation): noncompetitive | concentration of maximal effects on shortening of the ICI ([4]; in irrigation buffer, female rats): ~1 µM | ICI plateau at higher concentrations, of baseline ([4]; nifedipine above 1 μM): approximately 75%
